Measurements reported in ChEMBL document CHEMBL4024712, “Synthesis, stability and mechanistic studies of potent anticryptococcal hexapeptides” (Eur J Med Chem, 2017).
In brackets after ≈: the same amount, converted by molar mass. One block for each compound: values may come before it. Non-standard residues stand in square brackets, D forms with d. Residues, ends and D or L forms follow the SMILES beside them. His(τ-Bzl) = N[C@@H](Cc1cn(Cc2ccccc2)cn1)C(=O)O; Phe(4-NH2) = Nc1ccc(C[C@H](N)C(=O)O)cc1; Phe(4-Me) = Cc1ccc(C[C@H](N)C(=O)O)cc1; Cha = N[C@@H](CC1CCCCC1)C(=O)O; Phg = N[C@H](C(=O)O)c1ccccc1; dOrn = NCCC[C@@H](N)C(=O)O; Orn = NCCC[C@H](N)C(=O)O

How the values were obtained:
Candida albicans [1] = assay: Antifungal activity against Candida albicans ATCC 90028 after 18 to 24 hrs by Alamar blue assay; type: functional; conditions: for MIC: Candida albicans, ATCC 90028
Pseudomonas aeruginosa = assay: Anti-bacterial activity against Pseudomonas aeruginosa ATCC 27853 by CLSI method; type: functional
Vero = assay: Cytotoxicity against African green monkey Vero cells up to 10 ug/ml after 48 hrs by neutral red dye based assay; type: cell-based; conditions: chlorocebus sabaeus
Staphylococcus aureus [2] = assay: Anti-bacterial activity against Staphylococcus aureus ATCC 29213 by CLSI method; type: functional; conditions: Staphylococcus aureus, ATCC 29213; for IC50: read-out: IC50
Nakaseomyces glabratus = assay: Antifungal activity against Candida glabrata ATCC 90030 after 18 to 24 hrs by Alamar blue assay; type: functional
Staphylococcus aureus [3] = assay: Bactericidal activity against Staphylococcus aureus ATCC 29213 by CLSI method; type: functional
Pichia kudriavzevii [4] = assay: Antifungal activity against Candida krusei ATCC 6258 after 18 to 24 hrs by Alamar blue assay; type: functional
Staphylococcus aureus [5] = assay: Anti-bacterial activity against methicillin-resistant Staphylococcus aureus ATCC 33591 by CLSI method; type: functional
Pichia kudriavzevii [6] = assay: Fungicidal activity against Candida krusei ATCC 6258 after 18 to 24 hrs by Alamar blue assay; type: functional
Aspergillus fumigatus = assay: Antifungal activity against Aspergillus fumigatus ATCC 90906 after 68 to 72 hrs by Alamar blue assay; type: functional
[7] = test system: Mycobacterium intracellulare; assay: Bactericidal activity against Mycobacterium intracellulare ATCC 23068 after 68 to 72 hrs by Alamar blue assay; type: functional
Staphylococcus aureus [8] = assay: Bactericidal activity against methicillin-resistant Staphylococcus aureus ATCC 33591 by CLSI method; type: functional
Cryptococcus neoformans [9] = assay: Fungicidal activity against Cryptococcus neoformans ATCC 90113 after 68 to 72 hrs by Alamar blue assay; type: functional
Escherichia coli [10] = assay: Anti-bacterial activity against Escherichia coli ATCC 35218 by CLSI method; type: functional
Escherichia coli [11] = assay: Bactericidal activity against Escherichia coli ATCC 35218 by CLSI method; type: functional
[12] = test system: Mycobacterium intracellulare; assay: Anti-bacterial activity against Mycobacterium intracellulare ATCC 23068 after 68 to 72 hrs by Alamar blue assay; type: functional, cell-based; conditions: for MIC: Mycobacterium intracellulare, ATCC 23068
Candida albicans [13] = assay: Fungicidal activity against Candida albicans ATCC 90028 after 18 to 24 hrs by Alamar blue assay; type: functional
Cryptococcus neoformans [14] = assay: Antifungal activity against Cryptococcus neoformans ATCC 90113 after 68 to 72 hrs by Alamar blue assay; type: functional
[15] = Staphylococcus aureus, ATCC 33591
[16] = Escherichia coli, ATCC 35218, read-out: IC50
[17] = Pichia kudriavzevii, ATCC 6258, read-out: IC50
[18] = Staphylococcus aureus, ATCC 33591, read-out: IC50

SMILES: NCCC[C@H](N)C(=O)N[C@H](Cc1c[nH]c2ccccc12)C(=O)N[C@@H](CC1CCCCC1)C(=O)N[C@H](C(=O)N[C@H](Cc1ccccc1)C(=O)N[C@@H](Cc1cn(Cc2ccccc2)cn1)C(N)=O)c1ccccc1 (H-[Orn][dW][Cha][Phg][dF][His(τ-Bzl)]-NH2)
MIC (Candida albicans [1]): 20 µg/mL (≈ 20.4 µM)
IC50 (Pseudomonas aeruginosa): Not Active
Activity (Vero): Non-Toxic
MIC (Staphylococcus aureus [2]): 20 µg/mL (≈ 20.4 µM)
IC50 (Nakaseomyces glabratus): Not Active
MBC (Staphylococcus aureus [3]): 20 µg/mL (≈ 20.4 µM)
MIC (Pichia kudriavzevii [4]; Pichia kudriavzevii, ATCC 6258): 10 µg/mL (≈ 10.2 µM)
MIC (Staphylococcus aureus [5]; [15]): 20 µg/mL (≈ 20.4 µM)
MFC (Pichia kudriavzevii [6]): 10 µg/mL (≈ 10.2 µM)
IC50 (Aspergillus fumigatus): Not Active
MBC [7]: 10 µg/mL (≈ 10.2 µM)
MBC (Staphylococcus aureus [8]): 20 µg/mL (≈ 20.4 µM)

MIC (Candida albicans [1]): 20 µg/mL (≈ 20.9 µM)
MIC (Escherichia coli [10]; Escherichia coli, ATCC 35218): 20 µg/mL (≈ 20.9 µM)
MIC (Staphylococcus aureus [2]): 20 µg/mL (≈ 20.9 µM)
MIC (Pichia kudriavzevii [4]; Pichia kudriavzevii, ATCC 6258): 10 µg/mL (≈ 10.4 µM)
MIC [12]: 20 µg/mL (≈ 20.9 µM)
SMILES: CC[C@@H](C)[C@@H](NC(=O)[C@H](CC1CCCCC1)NC(=O)[C@@H](Cc1c[nH]c2ccccc12)NC(=O)[C@@H](N)CCCN)C(=O)N[C@H](Cc1ccccc1)C(=O)N[C@@H](Cc1cn(Cc2ccccc2)cn1)C(N)=O (H-[Orn][dW][Cha][dI][dF][His(τ-Bzl)]-NH2)
MFC (Cryptococcus neoformans [9]): 2.5 µg/mL (≈ 2.61 µM)
MBC (Staphylococcus aureus [3]): 20 µg/mL (≈ 20.9 µM)
MBC (Escherichia coli [11]): 20 µg/mL (≈ 20.9 µM)
MFC (Pichia kudriavzevii [6]): 10 µg/mL (≈ 10.4 µM)
MBC [7]: 20 µg/mL (≈ 20.9 µM)

MIC (Candida albicans [1]): 20 µg/mL (≈ 21.2 µM)
IC50 (Escherichia coli [10]): Not Active
IC50 (Pseudomonas aeruginosa): Not Active
MIC (Pichia kudriavzevii [4]; Pichia kudriavzevii, ATCC 6258): 20 µg/mL (≈ 21.2 µM)
MIC (Cryptococcus neoformans [14]): 1.25 µg/mL (≈ 1.32 µM)
MIC [12]: 20 µg/mL (≈ 21.2 µM)
SMILES: CC(C)[C@@H](NC(=O)[C@H](CC1CCCCC1)NC(=O)[C@@H](Cc1c[nH]c2ccccc12)NC(=O)[C@@H](N)CCCN)C(=O)N[C@H](Cc1ccccc1)C(=O)N[C@@H](Cc1cn(Cc2ccccc2)cn1)C(N)=O (H-[Orn][dW][Cha][dV][dF][His(τ-Bzl)]-NH2)
Activity (Vero): Non-Toxic
IC50 (Nakaseomyces glabratus): Not Active
MFC (Candida albicans [13]): 20 µg/mL (≈ 21.2 µM)
MFC (Pichia kudriavzevii [6]): 20 µg/mL (≈ 21.2 µM)
IC50 (Aspergillus fumigatus): Not Active

SMILES: Cc1ccc(C[C@H](NC(=O)[C@@H](Cc2ccccc2)NC(=O)[C@@H](Cc2c[nH]c3ccccc23)NC(=O)[C@@H](N)CCCN)C(=O)N[C@H](Cc2ccccc2)C(=O)N[C@H](CCCN)C(N)=O)cc1 (H-[Orn][dW][dF][Phe(4-Me)][dF][dOrn]-NH2)
IC50 (Candida albicans [1]): Not Active
MFC (Cryptococcus neoformans [9]): 1.25 µg/mL (≈ 1.41 µM)
IC50 (Escherichia coli [10]; [16]): > 20 µg/mL
IC50 (Pseudomonas aeruginosa): Not Active
Activity (Vero): Non-Toxic
IC50 (Staphylococcus aureus [2]): > 20 µg/mL
IC50 (Nakaseomyces glabratus): Not Active
MIC (Pichia kudriavzevii [4]; Pichia kudriavzevii, ATCC 6258): 20 µg/mL (≈ 22.5 µM)
IC50 (Pichia kudriavzevii [4]; [17]): 9.7 µg/mL (≈ 10.9 µM)
IC50 (Cryptococcus neoformans [14]): 0.67 µg/mL (≈ 0.755 µM)
MIC (Cryptococcus neoformans [14]): 1.25 µg/mL (≈ 1.41 µM)
IC50 (Staphylococcus aureus [5]; [18]): > 20 µg/mL
MFC (Pichia kudriavzevii [6]): 20 µg/mL (≈ 22.5 µM)
IC50 (Aspergillus fumigatus): Not Active
IC50 [12]: Not Active

SMILES: Cc1ccc(C[C@H](NC(=O)[C@@H](Cc2ccccc2)NC(=O)[C@@H](Cc2c[nH]c3ccccc23)NC(=O)[C@@H](N)CCCN)C(=O)N[C@H](Cc2ccccc2)C(=O)N[C@H](CCCNC(=N)N)C(N)=O)cc1 (H-[Orn][dW][dF][Phe(4-Me)][dF][dR]-NH2)
IC50 (Candida albicans [1]): Not Active
MFC (Cryptococcus neoformans [9]): 1.25 µg/mL (≈ 1.35 µM)
MIC (Escherichia coli [10]; Escherichia coli, ATCC 35218): 10 µg/mL (≈ 10.8 µM)
IC50 (Escherichia coli [10]; [16]): 4.8 µg/mL (≈ 5.17 µM)
IC50 (Pseudomonas aeruginosa; Pseudomonas aeruginosa, ATCC 27853, read-out: IC50): 15.7 µg/mL (≈ 16.9 µM)
Activity (Vero): Non-Toxic
MIC (Staphylococcus aureus [2]): 20 µg/mL (≈ 21.5 µM)
IC50 (Staphylococcus aureus [2]): 13.5 µg/mL (≈ 14.5 µM)
IC50 (Nakaseomyces glabratus): Not Active
MBC (Staphylococcus aureus [3]): 20 µg/mL (≈ 21.5 µM)
MBC (Escherichia coli [11]): 20 µg/mL (≈ 21.5 µM)
MIC (Pichia kudriavzevii [4]; Pichia kudriavzevii, ATCC 6258): 20 µg/mL (≈ 21.5 µM)
IC50 (Pichia kudriavzevii [4]; [17]): 14 µg/mL (≈ 15 µM)
IC50 (Cryptococcus neoformans [14]): 0.83 µg/mL (≈ 0.893 µM)
MIC (Cryptococcus neoformans [14]): 1.25 µg/mL (≈ 1.35 µM)
IC50 (Staphylococcus aureus [5]; [18]): > 20 µg/mL
MFC (Pichia kudriavzevii [6]): 20 µg/mL (≈ 21.5 µM)
IC50 (Aspergillus fumigatus): Not Active
IC50 [12]: Not Active

SMILES: Cc1ccc(C[C@H](NC(=O)[C@@H](Cc2ccccc2)NC(=O)[C@@H](Cc2c[nH]c3ccccc23)NC(=O)[C@@H](N)Cc2ccc(N)cc2)C(=O)N[C@H](Cc2ccccc2)C(=O)N[C@@H](Cc2cn(Cc3ccccc3)cn2)C(N)=O)cc1 (H-[Phe(4-NH2)][dW][dF][Phe(4-Me)][dF][His(τ-Bzl)]-NH2)
IC50 (Candida albicans [1]): Not Active
MFC (Cryptococcus neoformans [9]): 5 µg/mL (≈ 4.77 µM)
IC50 (Escherichia coli [10]): Not Active
IC50 (Pseudomonas aeruginosa): Not Active
Activity (Vero): Non-Toxic
IC50 (Nakaseomyces glabratus): Not Active
MBC (Staphylococcus aureus [3]): 20 µg/mL (≈ 19.1 µM)
IC50 (Pichia kudriavzevii [4]): Not Active
IC50 (Staphylococcus aureus [5]): Not Active
IC50 (Aspergillus fumigatus): Not Active
IC50 [12]: Not Active

SMILES: Cc1ccc(C[C@H](NC(=O)[C@@H](Cc2ccccc2)NC(=O)[C@@H](Cc2c[nH]c3ccccc23)NC(=O)[C@H](N)CCCNC(=N)N)C(=O)N[C@H](Cc2ccccc2)C(=O)N[C@@H](Cc2cn(Cc3ccccc3)cn2)C(N)=O)cc1 (H-[dR][dW][dF][Phe(4-Me)][dF][His(τ-Bzl)]-NH2)
IC50 (Candida albicans [1]): Not Active
MFC (Cryptococcus neoformans [9]): 2.5 µg/mL (≈ 2.4 µM)
MIC (Escherichia coli [10]; Escherichia coli, ATCC 35218): 20 µg/mL (≈ 19.2 µM)
IC50 (Pseudomonas aeruginosa): Not Active
Activity (Vero): Non-Toxic
MIC (Staphylococcus aureus [2]): 20 µg/mL (≈ 19.2 µM)
IC50 (Nakaseomyces glabratus): Not Active
MBC (Staphylococcus aureus [3]): 20 µg/mL (≈ 19.2 µM)
MBC (Escherichia coli [11]): 20 µg/mL (≈ 19.2 µM)
MIC (Pichia kudriavzevii [4]; Pichia kudriavzevii, ATCC 6258): 20 µg/mL (≈ 19.2 µM)
MIC (Staphylococcus aureus [5]; [15]): 20 µg/mL (≈ 19.2 µM)
MFC (Pichia kudriavzevii [6]): 20 µg/mL (≈ 19.2 µM)
IC50 (Aspergillus fumigatus): Not Active
IC50 [12]: Not Active
MBC (Staphylococcus aureus [8]): 20 µg/mL (≈ 19.2 µM)
